Data reported in patent publication US20220117958A1, “COMPOSITIONS AND METHODS FOR INHIBITING ACSS2” (THE TRUSTEES OF THE UNIVERSITY OF PENNSYLVANIA, priority 2018, published 2022).

Tests used:
Assay type in all cases: in vitro ADME
[1] = Microsomal stability assay (half-life), mouse; conditions: Mouse (CD1) microsomes, read-out: Microsomal stability T1/2
Source text: (§1) Table 20 provides results of in vitro and in vivo pharmacokinetics performed for each of the represented compounds.

[2] = Microsomal stability assay (half-life), human; conditions: Human microsomes, read-out: Microsomal stability T1/2
Source text: as §1

[3] = Microsomal stability assay (half-life), rat; conditions: Rat (SD) microsomes, read-out: Microsomal stability T1/2
Source text: as §1

[4] = Protein binding via Rapid Equilibrium Dialysis - plasma; conditions: Rat (SD) plasma, 2 μM
Source text: as §1

| half-life at 2 μM [1] | half-life at 2 μM [2] | half-life at 2 μM [3] | Protein binding, plasma: % Protein free [4] | Structure (SMILES) |
| --- | --- | --- | --- | --- |
| < 15 min | 7.97 min | 6.13 min |  | CCOc1ccc2ccc(=O)oc2c1 [7-Ethoxycoumarin, reference compound] |
|  |  |  | 0.5177 % Protein free | CC(=O)CC(c1ccccc1)c1c(O)c2ccccc2oc1=O (stereo not shown) [Warfarin, reference compound] |
